The text below walks through data of paper PMC4942689, “Deciphering the function of the CNGB1b subunit in olfactory CNG channels” (Scientific Reports, 2016).

The subject of test [1] is CNGA2TM:A4RE. On the set-up: method as in Nache et al., 2012; key: +: ligand binding to the respective modulatory subunits was either observed or not; −: ligand binding to the respective modulatory subunits was either observed or not. The following applies: 10 μM; construct CNGA2TM:A4RE; ref Nache et al., 2012; cited from earlier work.
Test [2] has as its target T1, CNGA2TM:A4RE:B1b (Rattus norvegicus, UniProt A0A8I5ZN27+Q00195+Q64359, R430E/T539M).
T1 construct: expressed in transfected cells; host or cells: Xenopus laevis oocytes (cRNA injection), excised inside-out patches
Briefly: Channel activation during confocal patch-clamp fluorometry. The test is classed as biochemical. The following applies: 10 μM fcGMP; normalized to current at 4 mM cGMP. As for the experimental part: (§1) To verify the hypothesis that the CNGB1b subunit in CNGA2:A4:B1b channels binds cyclic nucleotides, we coexpressed CNGB1b with CNGA4RE and either CNGA2RE or CNGA2TM and measured ligand binding in the presence of 10 μM fcGMP. […] To verify the specificity of the binding to the CNGB1b subunit in these heterotetrameric channels, we coexpressed the CNGB1bRE subunit with CNGA2RE and CNGA4RE.
(§2) Figure 2 In a CNGA2:A4 background the CNGB1b subunit binds both fcGMP and fHcAMP and activates the channel. (a) Binding of fcGMP to the CNGB1b subunit evokes channel activation. Binding of fcGMP to CNGB1b was observed when coexpressed with either CNGA2RE:A4RE or CNGA2TM:A4RE (upper diagram). […] (b) Binding of fHcAMP to CNGB1b was observed when coexpressed with both CNGA2RE and CNGA4RE. When disabling the binding domain of CNGB1b, the fluorescence intensity was nearly abolished. Correspondingly, CNGA2RE:A4RE:B1b channels were activated by the ligand only when the CNGB1b binding site was available.
(§3) Patch-clamp experiments were performed using an Axopatch 200B amplifier (Molecular Devices LLC, CA, U.S.A.) in the inside-out configuration. The patch pipettes for recording of macroscopic currents were pulled from borosilicate glass tubing (outer diameter 2.0 mm, inner diameter 1.0 mm; Hilgenberg GmbH, Germany). The initial resistance was 0.7–1.3 MΩ. The patches were formed as pushed inside-out patches. […] Cyclic nucleotide concentration jumps were performed using a double-barreled glass pipette mounted on a piezo-driven device. Intracellular (bath) and extracellular (pipette) solutions contained (mM) 150 KCl, 1 EGTA, 5 Hepes, pH = 7.4 with KOH. […] Currents in the absence of the cyclic nucleotide were subtracted. All patches included in this study were first tested for channel expression in the presence of a saturating ligand concentration. Only patches with large current, i.e. a large number of channels, were included in our statistics. The currents were measured at +10 mV or, if mentioned, at +100 mV.
(§4) The ligand binding was measured in macropatches by patch-clamp fluorometry[41][42] combined with confocal microscopy. […] Recordings were performed with an LSM 510 or 710 confocal microscope (Zeiss, Jena, Germany) and were triggered by the ISO3 software (MFK, Niedernhausen, Germany). To distinguish between the fluorescence of the unbound ligands from that of the bound ligands, a second dye, DY647 (Dyomics, Jena, Germany), was added to the bath solution. The 543-nm and 633-nm lines of a He-Ne laser were used to excite fcAMP/fcGMP and DY647, respectively. The method of confocal patch-clamp fluorometry has been described in detail previously.
(In general: Patch clamp records ionic current or voltage across a cell membrane.)

Test [3] addresses T2, CNGA2RE:A4RE:B1bRE (Rattus norvegicus, UniProt A0A8I5ZN27+Q00195+Q64359, R1106E/R430E/R538E).
T2 construct: expressed in transfected cells; host or cells: Xenopus laevis oocytes (cRNA injection), excised inside-out patches
The test is described as above. The test is classed as biochemical. The following applies: 10 μM fcGMP; all four binding sites disabled. As for the experimental part:
as §1, §2, §3, §4

Test [4] has as its target T3, CNGA2TM:A4RE:B1bRE (Rattus norvegicus, UniProt A0A8I5ZN27+Q00195+Q64359, R1106E/R430E/T539M).
T3 construct: expressed in transfected cells; host or cells: Xenopus laevis oocytes (cRNA injection), excised inside-out patches
Described as above. The format is biochemical. Conditions: 10 μM fcGMP; all four binding sites disabled. On the procedure: as §1, §2, §3, §4

The target in test [5] is T4, homotetrameric CNGA2 channels (Rattus norvegicus, UniProt Q00195).
T4 construct: expressed in transfected cells; host or cells: Xenopus laevis oocytes (cRNA injection), excised inside-out patches
T4 sequence (Q00195 whole entry): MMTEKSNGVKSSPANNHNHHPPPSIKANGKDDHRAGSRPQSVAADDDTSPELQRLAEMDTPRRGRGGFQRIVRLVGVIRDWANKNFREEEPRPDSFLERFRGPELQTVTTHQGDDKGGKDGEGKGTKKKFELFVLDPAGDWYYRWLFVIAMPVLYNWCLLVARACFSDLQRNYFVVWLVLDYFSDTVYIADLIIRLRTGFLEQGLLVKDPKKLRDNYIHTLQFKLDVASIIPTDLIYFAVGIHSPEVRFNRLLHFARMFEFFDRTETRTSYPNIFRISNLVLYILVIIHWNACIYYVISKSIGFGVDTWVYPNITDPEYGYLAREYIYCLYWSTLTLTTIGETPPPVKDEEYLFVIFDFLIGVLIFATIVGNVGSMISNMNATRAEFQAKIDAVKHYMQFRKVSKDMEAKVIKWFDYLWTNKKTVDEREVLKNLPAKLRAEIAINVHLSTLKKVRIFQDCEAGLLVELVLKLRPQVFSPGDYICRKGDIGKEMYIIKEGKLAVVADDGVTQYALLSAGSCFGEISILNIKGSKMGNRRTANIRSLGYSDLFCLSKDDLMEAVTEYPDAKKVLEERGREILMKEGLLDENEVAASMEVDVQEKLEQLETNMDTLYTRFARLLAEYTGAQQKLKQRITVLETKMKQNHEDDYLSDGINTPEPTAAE
Briefly: Concentration-activation relationship, inside-out patch-clamp, Xenopus oocytes. The format is biochemical. On the procedure:
as §3, with “The initial resistance was 0.7–1.3 MΩ.” left out, “mV. Fits of equations to data points were performed with the 8.1G® software (OriginLab Corporation, Northampton, U.S.A.). Concentration-activation relationships were obtained by relating the actual current amplitude, I, to the maximum current amplitude elicited by a saturating concentration of ligand, Imax, and plotting this ratio as function of the ligand concentration, x. […]” for “mV.”

T2 sequence (Q00195 whole entry R538E): as the sequence (Q00195 whole entry) above, with R538E counted along it
T2 sequence (Q64359 whole entry R430E): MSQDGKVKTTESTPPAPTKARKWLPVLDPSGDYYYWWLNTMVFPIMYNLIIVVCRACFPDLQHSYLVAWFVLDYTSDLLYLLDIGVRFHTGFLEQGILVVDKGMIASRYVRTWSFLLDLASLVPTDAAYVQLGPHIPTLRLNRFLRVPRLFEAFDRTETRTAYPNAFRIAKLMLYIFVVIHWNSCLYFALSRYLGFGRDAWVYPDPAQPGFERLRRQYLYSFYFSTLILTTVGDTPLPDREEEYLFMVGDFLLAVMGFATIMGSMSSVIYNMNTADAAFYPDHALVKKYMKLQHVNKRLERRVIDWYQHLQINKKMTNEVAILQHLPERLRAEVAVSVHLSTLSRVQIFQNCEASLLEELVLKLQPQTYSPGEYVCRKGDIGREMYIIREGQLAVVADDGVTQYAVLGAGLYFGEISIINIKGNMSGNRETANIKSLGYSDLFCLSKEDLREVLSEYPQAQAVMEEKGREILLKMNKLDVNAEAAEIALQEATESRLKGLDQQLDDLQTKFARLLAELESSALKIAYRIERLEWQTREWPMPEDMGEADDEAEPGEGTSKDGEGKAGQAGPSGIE
T2 sequence (A0A8I5ZN27 1-858 isoform A0A8I5ZN27-2 R657E): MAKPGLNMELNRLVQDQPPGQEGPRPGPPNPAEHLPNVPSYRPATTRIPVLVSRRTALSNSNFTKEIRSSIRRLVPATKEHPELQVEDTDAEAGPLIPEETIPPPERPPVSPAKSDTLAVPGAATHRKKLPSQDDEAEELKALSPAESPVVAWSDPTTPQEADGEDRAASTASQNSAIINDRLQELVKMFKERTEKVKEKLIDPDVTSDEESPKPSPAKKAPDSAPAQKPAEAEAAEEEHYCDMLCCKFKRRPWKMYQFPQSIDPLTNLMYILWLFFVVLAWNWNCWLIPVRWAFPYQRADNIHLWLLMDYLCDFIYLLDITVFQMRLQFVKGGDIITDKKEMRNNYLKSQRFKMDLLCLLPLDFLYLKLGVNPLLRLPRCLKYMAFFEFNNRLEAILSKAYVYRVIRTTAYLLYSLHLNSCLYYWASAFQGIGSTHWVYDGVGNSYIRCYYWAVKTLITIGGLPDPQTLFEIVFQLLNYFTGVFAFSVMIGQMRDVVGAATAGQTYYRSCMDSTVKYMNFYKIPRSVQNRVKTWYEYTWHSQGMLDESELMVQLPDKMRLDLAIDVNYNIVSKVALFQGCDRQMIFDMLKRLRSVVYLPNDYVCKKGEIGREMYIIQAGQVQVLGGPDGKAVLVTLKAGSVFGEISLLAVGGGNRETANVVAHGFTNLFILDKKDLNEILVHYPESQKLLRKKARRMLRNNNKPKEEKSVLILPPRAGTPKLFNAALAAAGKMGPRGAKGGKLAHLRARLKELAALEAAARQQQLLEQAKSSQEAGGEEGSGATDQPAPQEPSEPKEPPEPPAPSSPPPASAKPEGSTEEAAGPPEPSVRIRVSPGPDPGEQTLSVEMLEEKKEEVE
T3 sequence (Q00195 whole entry T539M): as the sequence (Q00195 whole entry) above, with T539M counted along it
T3 sequence (Q64359 whole entry R430E): as the sequence (Q64359 whole entry R430E) above
T3 sequence (A0A8I5ZN27 1-858 isoform A0A8I5ZN27-2 R657E): as the sequence (A0A8I5ZN27 1-858 isoform A0A8I5ZN27-2 R657E) above
T1 sequence (Q00195 whole entry T539M): as the sequence (Q00195 whole entry) above, with T539M counted along it
T1 sequence (Q64359 whole entry R430E): as the sequence (Q64359 whole entry R430E) above
T1 sequence (A0A8I5ZN27 1-858 isoform A0A8I5ZN27-2, stated change not applied): as the sequence (A0A8I5ZN27 1-858 isoform A0A8I5ZN27-2 R657E) above, with E657R counted along it

As to 8-[DY-547]-AET-cGMP [fcGMP], the “Ligand binding to CNGA4” value in test [1] is reported as “−”. Moreover, the “activation (I/Imax)” value in test [2] turned out to be 1.7 ± 0.6%. Further, the activation result in test [3] and in test [4] was “did not trigger activation” in each case.

The term EC50 denotes the concentration giving half of the maximal effect. As to `Nc1nc2c(ncn2[C@@H]2O[C@@H]3COP(=O)(O)O[C@H]3[C@H]2O)c(=O)[nH]1` [cGMP], the H in test [5] (Hill coefficient, Equation 1) came to 1.9. Besides, the midpoint of the response in test [5] (fit with Equation 1), the EC50, lay at 1740 nM.
